Here are results for 7 compounds from PMC5464768, “ER retention is imposed by COPII protein sorting and attenuated by 4-phenylbutyrate” (eLife, 2017).

Read-outs that look alike come from different tables or passages of the source.

Data set [1] deals with T1, human Sec24a (Homo sapiens, UniProt O95486).
T1 construct: His6 (TEV-cleavable) (N, cleaved yes); made in house; host or cells: High Five insect cells (baculovirus)
T1 sequence (O95486 341-1093): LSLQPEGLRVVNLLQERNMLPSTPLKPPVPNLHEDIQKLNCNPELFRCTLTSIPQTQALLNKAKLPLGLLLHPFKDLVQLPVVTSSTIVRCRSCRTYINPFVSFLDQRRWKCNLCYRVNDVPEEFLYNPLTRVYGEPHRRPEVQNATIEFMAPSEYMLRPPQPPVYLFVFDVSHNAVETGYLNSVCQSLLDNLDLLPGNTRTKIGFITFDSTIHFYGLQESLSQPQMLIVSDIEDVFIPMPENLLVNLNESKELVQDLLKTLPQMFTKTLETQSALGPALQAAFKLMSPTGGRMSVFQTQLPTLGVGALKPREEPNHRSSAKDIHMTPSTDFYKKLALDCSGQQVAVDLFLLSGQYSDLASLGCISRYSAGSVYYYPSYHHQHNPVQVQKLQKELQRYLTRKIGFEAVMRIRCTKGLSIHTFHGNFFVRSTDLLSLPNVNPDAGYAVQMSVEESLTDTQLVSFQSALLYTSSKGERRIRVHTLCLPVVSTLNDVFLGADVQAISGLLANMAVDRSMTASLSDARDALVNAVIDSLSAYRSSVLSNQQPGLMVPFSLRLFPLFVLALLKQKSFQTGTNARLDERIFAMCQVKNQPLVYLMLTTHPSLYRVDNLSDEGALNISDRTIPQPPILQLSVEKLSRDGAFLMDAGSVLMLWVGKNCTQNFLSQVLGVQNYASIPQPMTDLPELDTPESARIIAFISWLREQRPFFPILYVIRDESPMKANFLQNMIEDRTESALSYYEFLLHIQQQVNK
Kind of data set: Fluorescence polarization competition binding assay (displacement of 5-Fam-[…]). As to conditions: fluorescence polarization at 22°C; 5 µM probe, 22 µM Sec24a; ± standard error of fit; read-out: IC50, displacement of fluorescent probe 5-Fam-[…] from Sec24a.

The test system of data set [2] is CHO cells expressing G544V-mutant LDL receptor. Kind of data set: Restoration of trafficking of mutant LDL receptor in cells (immunoblot for 160 kDa mature glycosylated form). It counts as cell-based. As to conditions: for EC50: ± standard error of fit. The protocol:
(§1) T-Rex-CHO-K1 cloned cell lines expressing wild-type and mutant LDL receptor were cultured as described ([Sørensen et al., 2006]; [Tveten et al., 2007]), and according to the manufacturer’s protocols (Thermo Fisher Scientific; CHO cell Lot No. 1610593). The expression in CHO cells of G544V-mutant or wild-type LDL receptor protein was induced with 1 µg/mL tetracycline for 24 hr prior to experiments with 4-PBA or 4-PBA analogs ([Tveten et al., 2007]). To compare pharmacological potency of 4-PBA analogs, cells were incubated with the compounds for 2 hr at 37°C in 12-well 22 mm plates (Corning Costar #3513). For experiments concerning the extracellular secretion of GRP94 (Figure 5), the incubations with 4-PBA were extended to 24 hr. Cells were broken in lysis buffer (1% (v/v) Triton X-100, 150 mM NaCl, 10 mM EDTA, 50 mM Tris-HCl pH 7.5) and cleared by centrifugation (15,000 g for 15 min). Cellular protein concentration was measured using ‘Protein Assay Kit II’ (Bio-Rad) with bovine serum albumin as standard. Lysates were added to Laemmli sample buffer (New England BioLabs) containing 130 mM dithiothreitol and heated for 15 min at 55°C. Cell medium (containing secreted proteins) was added to Laemmli sample buffer containing 5% β-mercaptoethanol and boiled for 5 min. Samples were run on 4–15% Tris/HCl Criterion gels (Bio-Rad) followed by immunoblotting.
Proteins were electrotransferred from SDS-PAGE gels onto Immun-Blot low fluorescence PVDF membrane (Bio-Rad) and blocked using TBST (5% BioRad Blocker in 25 mM Tris-HCl pH 7.4, 150 mM NaCl, 0.05% (v/v) Tween 20). Membranes were incubated at 4°C overnight with primary antibodies in TBST followed by incubation with horseradish peroxidase-conjugated secondary antibodies. Chemiluminescence signals were generated by incubation with ECL Prime Western Blotting detection reagent (GE Healthcare #RPN2236). […] Chemiluminescence signals were detected using a ChemiDoc MP Imaging System and acquired with Image Lab 5.0 software (Bio-Rad). Quantification of protein band intensities was performed using Image Gauge software Version 4.1 (Fujifilm), including background correction of the raw image data.
Chemiluminescence signals from western blots for the glycosylated (160 kDa) form of G544V-mutant LDL receptor were quantified as a percentage of total LDL receptor protein (glycosylated + unglycosylated bands). Data at high concentrations of 4-PBA analogs, which show inhibition of LDL receptor trafficking, were omitted. Data from individual experiments were normalized (to obtain maximal response = 100%), so that data from replicate experiments (n = 4–5) could be averaged. Logistic fitting to the dose-response data was carried out with program Ultrafit (Elsevier Biosoft).
(Immunoblotting shows a protein as a band on a membrane.)

Data set [3] addresses T2, B site of Sec24a (Homo sapiens, UniProt O95486).
T2 construct: His6 (TEV-cleavable) (N, cleaved yes); made in house; host or cells: High Five insect cells (Sec23a/Sec24a); E. coli (Sec22b)
Kind of data set: X-ray crystallography of ligand-soaked Sec23a/Sec24a•Sec22b crystals. It counts as binding. The conditions noted are these: crystals soaked with 4-PBA at 1, 15 and 50 mM or with 5 mM ΦC signal peptide. Here is the method:
The Sec23a/Sec24a•Sec22b complex was crystallized as described previously ([Mancias and Goldberg, 2007]) from a solution comprising 10% (w/v) PEG 4000, 500 mM Na acetate and 50 mM Tris-HCl pH 7.9. Since acetate ions compete with ligand binding at the B site, crystals were transferred into a soaking buffer of 10% (w/v) PEG 4000, 600 mM NaCl, 50 mM Tris-HCl buffer, pH 7.9. (Two acetate ions are observed bound to B-site arginine residues in electron density maps calculated from Sec23a/Sec24a•Sec22b crystallographic data, PDB 2NUT). To this was added 4-PBA (0–50 mM) or 5 mM ΦC signal peptide, and ligand soaking proceeded for five hours at 22°C. Crystals were then transferred to an equivalent ligand-containing buffer with additional 24% ethylene glycol cryo-protectant, and were flash frozen in liquid nitrogen. Crystals treated in this manner diffracted synchrotron X-rays to 2.5–2.8 Å resolution.
X-ray diffraction data were collected at 0.979 Å wavelength on beamline ID-24C or ID-24E of the Advanced Photon Source, Argonne National Laboratory. Data were processed with the program HKL2000 ([Otwinowski and Minor, 1997]; Tables 1 and 2). Structure refinement was carried out using Phenix ([Adams et al., 2010]), initially by rigid-body improvement, followed by positional refinement, based on the published coordinates of Sec23a/Sec24a•Sec22b (PDB 2NUT; [Mancias and Goldberg, 2007]). […]

The target of data set [4] is T3, COPII coat (Sec23a/24d) packaging of p24 proteins and ERGIC-53 (Homo sapiens, UniProt O94855).
T3 construct: Sec23a/Sec24d (full-length protein) for COPII budding assays; His6 (TEV-cleavable) (N); made in house; host or cells: High Five insect cells (Sec23a/24d, Sec13a/31a); E. coli BL21(DE3) (Sar1a); added to digitonin-permeabilized T-Rex-CHO-K1 cells
T3 sequence (O94855 whole entry): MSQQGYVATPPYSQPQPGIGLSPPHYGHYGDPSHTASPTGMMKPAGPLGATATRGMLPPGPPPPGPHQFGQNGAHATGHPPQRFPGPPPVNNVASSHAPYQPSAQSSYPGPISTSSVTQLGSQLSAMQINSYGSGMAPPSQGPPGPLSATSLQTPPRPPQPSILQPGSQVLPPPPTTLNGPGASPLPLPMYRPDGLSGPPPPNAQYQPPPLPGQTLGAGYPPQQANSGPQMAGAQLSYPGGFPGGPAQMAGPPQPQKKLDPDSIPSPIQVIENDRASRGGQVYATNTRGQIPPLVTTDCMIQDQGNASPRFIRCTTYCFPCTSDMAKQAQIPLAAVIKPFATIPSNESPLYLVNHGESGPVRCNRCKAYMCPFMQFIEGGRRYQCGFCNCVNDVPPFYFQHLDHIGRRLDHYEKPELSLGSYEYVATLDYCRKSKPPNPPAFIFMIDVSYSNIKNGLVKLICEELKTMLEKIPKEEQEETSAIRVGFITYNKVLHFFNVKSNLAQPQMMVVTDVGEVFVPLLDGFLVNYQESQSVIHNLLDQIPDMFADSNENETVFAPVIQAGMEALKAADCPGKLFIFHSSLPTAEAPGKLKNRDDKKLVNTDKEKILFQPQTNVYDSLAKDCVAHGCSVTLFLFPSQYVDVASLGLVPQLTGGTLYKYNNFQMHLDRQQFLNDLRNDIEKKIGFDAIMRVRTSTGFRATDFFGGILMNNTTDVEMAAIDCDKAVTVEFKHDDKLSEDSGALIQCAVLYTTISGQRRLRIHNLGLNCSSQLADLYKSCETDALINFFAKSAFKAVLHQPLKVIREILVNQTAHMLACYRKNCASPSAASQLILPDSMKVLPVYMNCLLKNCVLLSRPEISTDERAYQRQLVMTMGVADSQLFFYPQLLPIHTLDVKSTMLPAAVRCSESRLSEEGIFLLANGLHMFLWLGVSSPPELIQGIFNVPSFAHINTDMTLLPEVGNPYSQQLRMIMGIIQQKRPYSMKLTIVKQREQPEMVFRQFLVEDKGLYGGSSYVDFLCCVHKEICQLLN
T3 sequence (Q15436 whole entry partner): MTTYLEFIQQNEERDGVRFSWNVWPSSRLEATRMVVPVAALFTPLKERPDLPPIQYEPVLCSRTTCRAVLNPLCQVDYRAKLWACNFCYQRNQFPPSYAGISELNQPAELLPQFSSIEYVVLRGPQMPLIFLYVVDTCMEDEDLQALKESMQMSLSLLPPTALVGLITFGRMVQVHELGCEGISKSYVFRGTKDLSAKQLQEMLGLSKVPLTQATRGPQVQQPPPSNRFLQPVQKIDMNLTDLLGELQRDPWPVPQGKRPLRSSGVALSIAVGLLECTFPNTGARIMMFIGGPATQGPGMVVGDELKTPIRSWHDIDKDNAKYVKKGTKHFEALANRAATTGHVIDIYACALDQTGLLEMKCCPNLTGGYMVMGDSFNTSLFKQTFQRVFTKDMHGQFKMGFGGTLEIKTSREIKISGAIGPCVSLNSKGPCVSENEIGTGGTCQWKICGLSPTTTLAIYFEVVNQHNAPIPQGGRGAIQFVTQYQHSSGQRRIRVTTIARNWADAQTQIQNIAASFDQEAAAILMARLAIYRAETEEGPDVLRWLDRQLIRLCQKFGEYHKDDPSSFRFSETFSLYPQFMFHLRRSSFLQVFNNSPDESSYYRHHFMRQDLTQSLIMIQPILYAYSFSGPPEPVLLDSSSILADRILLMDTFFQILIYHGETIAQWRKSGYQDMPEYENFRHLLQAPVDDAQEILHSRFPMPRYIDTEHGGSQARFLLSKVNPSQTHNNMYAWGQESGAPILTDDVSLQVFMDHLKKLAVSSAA
As to the kind of experiment: In vitro COPII vesicle budding assay with permeabilized CHO (T-Rex-CHO-K1) cells. It counts as biochemical, H. sapiens. As to conditions: 10 mM 4-PBA; corrected for budding yield. The protocol:
In vitro COPII budding reactions used permeabilized cells prepared from the T-Rex-CHO-K1 parent line and from the clone that expresses mutant LDL receptor. Permeabilization was carried out as described ([Mancias and Goldberg, 2008]) with modifications. Two culture dishes (150 mm) of cells were prepared with cells at no greater than 60% confluence. Cells were washed with 20 ml PBS at 37°C and then trypsinized with 2 ml of Trypsin-EDTA (0.05%, Gibco) for 1 min at 37°C; 100 µl of Soybean Trypsin Inhibitor (2 mg/ml; Sigma) was added to each culture plate. To this was added 5.5 ml ice-cold KHM buffer (110 mM KOAc, 20 mM Hepes pH 7.2, 2 mM magnesium acetate) per plate, and cells were transferred to a 15 ml Falcon tube and pelleted gently (250 g for 3 min at 4°C). The supernatant was aspirated and the cells resuspended in 6 ml ice-cold KHM buffer. To permeabilize the cells, 6 µl digitonin stock solution (40 mg/ml in dimethyl sulfoxide) was added, cells were mixed by inversion and incubated on ice for 5 min. To terminate permeabilization, cells were diluted to 14 ml with KHM buffer and immediately pelleted at 250 g for 3 min at 4°C. […] The protein concentration was measured using protein assay kit (Bio-Rad) with BSA as standard; routinely, the measurement is in the range 4–5 mg/ml. […]

Data set [5] has as its system CHO cells (stressed, expressing G544V-mutant LDL receptor, and unstressed wild-type). Kind of data set: Extracellular secretion of GRP94 from CHO cells. The conditions noted are these: 24 hr at 37°C. It counts as cell-based. Here is the method: as §1
[6] abbreviates: Cricetulus griseus, CHO, 2 h, read-out: EC50, acquisition of mutant LDL receptor glycosylation (restoration of trafficking), CHO cells expressing G544V-mutant LDL receptor, 2 hr at 37°C.

T2 sequence (Q15436 whole entry partner, one chain of several): as the sequence (Q15436 whole entry partner) above
T2 sequence (O75396 1-195 partner limits assumed, one chain of several): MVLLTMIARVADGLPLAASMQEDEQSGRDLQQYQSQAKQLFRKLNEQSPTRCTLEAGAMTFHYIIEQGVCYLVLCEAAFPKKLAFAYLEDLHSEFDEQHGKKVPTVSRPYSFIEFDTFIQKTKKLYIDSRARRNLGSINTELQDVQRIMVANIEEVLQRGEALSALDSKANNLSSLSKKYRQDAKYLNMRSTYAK

The term IC50 denotes the point on the concentration scale where inhibition reaches its midpoint. On to `O=C(O)CCc1ccccc1` [3-PPA, 3-phenylpropionate], for which the IC50 in data set [1] came to 4.11 ± 0.34 mM. Also, in data set [2] (setting [6]), the EC50 amounted to 7.48 ± 0.68 mM.

`COc1ccc(CCCC(=O)O)cc1` [Methoxy-PBA, 4-(4-methoxyphenyl)butyrate]: the IC50 in data set [1] was determined as 4.14 ± 0.7 mM. Besides, in data set [2] (setting [6]), the EC50 was 8.63 ± 0.98 mM.

On to `O=C(O)CCCc1ccc(O)cc1` [Hydroxy-PBA, 4-(4-hydroxyphenyl)butyrate], for which the IC50 in data set [1] was determined as 5.04 ± 0.69 mM. Besides, in data set [2] (setting [6]), the EC50 amounted to 10.6 ± 0.4 mM.

On to `O=C(O)CCc1ccc(O)cc1` [Hydroxy-PPA, 3-(4-hydroxyphenyl)propionate], for which the IC50 in data set [1] came to 9.22 ± 0.94 mM. The EC50 in data set [2] (setting [6]) amounted to 21.7 ± 1.03 mM.

For the compound `O=C(O)CCCCc1ccccc1` [5-PVA, 5-phenylvalerate], the IC50 in data set [1] is 0.99 ± 0.08 mM. Further, the EC50 in data set [2] (setting [6]) came out at 3.36 ± 0.42 mM.

On to `O=C(O)CCCc1ccccc1` [4-PBA, 4-phenylbutyrate], for which the concentration for half-maximal inhibition (IC50) in data set [1] was found to be 3.66 ± 0.22 mM. Besides, in data set [3], the “binding to Sec24a in crystals (difference Fourier maps / residual electron density)” value is “clear evidence for binding”. Besides, in data set [4], the “reduction in the packaging rate of p24 proteins and ERGIC-53 into COPII vesicles” value worked out at 50%. Further, in data set [5] (45 mM 4-PBA), the “cell lysis (GAPDH marker) and loss of GRP94 secretion” value is “cell lysis is detected”. For the same compound, the “concentration giving maximal secretion of GRP94” value in data set [5] (stressed and unstressed cells) was 20 mM. The “fraction of mutant LDL receptor with restored trafficking” value in data set [2] (10 mM 4-PBA applied to cells) was no more than 25%. Moreover, the EC50 in data set [2] (setting [6]) was 6.4 mM; in data set [2] (read-out: EC50, acquisition of mutant LDL receptor glycosylation (restoration of trafficking), CHO cells expressing G544V-mutant LDL receptor, 2 hr at 37°C), 6.37 ± 0.5 mM.

For the compound `Cc1ccc(CCCC(=O)O)cc1` [Tolyl-BA, 4-(4-tolyl)butyrate], the concentration for half-maximal inhibition (IC50) in data set [1] came out at 1.7 ± 0.16 mM. Further, in data set [2] (setting [6]), the EC50 was found to be 4.89 ± 0.24 mM.
